According to patent US20200016159A1, “N3-CYCLICALLY SUBSTITUTED THIENOURACILS AND USE THEREOF” (Bayer Aktiengesellschaft, priority 2016, published 2020):

The molecules below were run against T1, human adenosine A2b receptor (Homo sapiens, UniProt P29275) (assay: Cellular in vitro reporter gene test for A2b receptor activity (antagonism of NECA)). Details: recombinant CHO-K1 cells, CRE-luciferase reporter, co-incubation with EC50 concentration of NECA, 3 hours.
T1 sequence (P29275 1-332): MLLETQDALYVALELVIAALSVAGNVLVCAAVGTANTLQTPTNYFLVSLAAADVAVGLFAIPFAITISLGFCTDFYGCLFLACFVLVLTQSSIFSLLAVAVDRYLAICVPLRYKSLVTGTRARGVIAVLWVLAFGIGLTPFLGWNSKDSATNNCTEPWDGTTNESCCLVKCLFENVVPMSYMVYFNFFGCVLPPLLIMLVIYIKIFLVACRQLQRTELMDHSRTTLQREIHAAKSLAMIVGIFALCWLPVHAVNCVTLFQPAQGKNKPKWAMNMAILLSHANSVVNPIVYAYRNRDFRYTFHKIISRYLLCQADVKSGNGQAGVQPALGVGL
Assay type: cell-based
Set-up: expressed in transfected cells; host or cells: CHO-K1 (Chinese hamster ovary) with CRE-luciferase reporter
How it was run: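 CHO-K1 cells expressing recombinant human A2b receptor plus a CRE-driven firefly luciferase reporter. Compounds co-incubated with NECA at its same-day EC50 concentration; luminescence read 3 hours after NECA addition. IC50 values, sometimes means of several determinations rounded to two significant figures.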
For `COCCn1c(=O)n(C2CC3(CCC3)C2)c(=O)c2c(C)c(Cn3nc[nH]c3=O)sc21` [Example 183, 1-(2-Methoxyethyl)-5-methyl-6-[(5-oxo-4,5-dihydro-1H-1,2,4-triazol-1-yl)methyl]-3-(spiro[3.3]hept-2-yl)thieno[2,3-d]pyrimidine-2,4(1H,3H)-dione], the IC50 was 70 nM.
Molecule `COCCn1c(=O)n(C2CC(F)(F)C2)c(=O)c2c(C)c(CN3CCNC3=NC(=O)OC)sc21` [Example 127, Methyl [1-{[3-(3,3-difluorocyclobuty)-1-(2-methoxyethyl)-5-methyl-2,4-dioxo-1,2,3,4-tetrahydrothieno[2,3-d]pyrimidin-6-yl]methyl}imidazolidin-2-ylidene]carbamate] has an IC50 of 10 nM.
Molecule `Cc1c(CN2CCNC2=O)sc2c1c(=O)n(C1COC1)c(=O)n2CCC(F)(F)F` [Example 130, 5-Methyl-3-(oxetan-3-yl)-6-[(2-oxoimidazolidin-1-yl)methyl]-1-(3,3,3-trifluoropropyl)thieno[2,3-d]pyrimidine-2,4(1H,3H)-dione] has an IC50 of 14 nM.
For `Cc1c(Cn2nc[nH]c2=O)sc2c1c(=O)n(C1CC1)c(=O)n2C[C@H]1CCCO1` [Example 50, 3-Cyclopropyl-5-methyl-6-[(5-oxo-4,5-dihydro-1H-1,2,4-triazol-1-yl)methyl]-1-[(2R)-tetrahydrofuran-2-ylmethyl]thieno[2,3-d]pyrimidine-2,4(1H,3H)-dione], the IC50 was 140 nM.
`CCCn1c(=O)n(C2CC2C)c(=O)c2c(C)c(CN3CCNC3=O)sc21` (racemic) [Example 227, 5-Methyl-3-(2-methylcyclopropyl)-6-[(2-oxoimidazolidin-1-yl)methyl]-1-propylthieno[2,3-d]pyrimidine-2,4(1H,3H)-dione] showed an IC50 of 2.9 nM.
Molecule `COCCn1c(=O)n(C2(C)CCC2)c(=O)c2c(C)c(CN3CCNC3=NC(=O)OC)sc21` [Example 141, Methyl [1-{[1-(2-methoxyethyl)-5-methyl-3-(1-methylcyclobutyl)-2,4-dioxo-1,2,3,4-tetrahydrothieno[2,3-d]pyrimidin-6-yl]methyl}imidazolidine-2-ylidene]carbamate] has an IC50 of 110 nM.
`COCCn1c(=O)n(C2CC(C)(C)C2)c(=O)c2c(C)c(CN3CCNC3=O)sc21` [Example 169, 3-(3,3-Dimethylcyclobutyl)-1-(2-methoxyethyl)-5-methyl-6-[(2-oxoimidazolidin-1-yl)methyl]thieno[2,3-d]pyrimidine-2,4(1H,3H)-dione] gave an IC50 of 14 nM.
`COCCn1c(=O)n(C2CC2(C)C)c(=O)c2c(C)c(CN3CCNC3=O)sc21` (single isomer, unassigned) [Example 104, 3-(2,2-Dimethylcyclopropyl)-1-(2-methoxyethyl)-5-methyl-6-[(2-oxoimidazolidin-1-yl)methyl]thieno[2,3-d]pyrimidine-2,4(1H,3H)-dione] was tested, and the IC50 was 35 nM.
`Cc1c(CN2CCNC2=NC#N)sc2c1c(=O)n(C1CC(C)(C)C1)c(=O)n2CCC(F)(F)F` [Example 165, [1-{[3-(3,3-Dimethylcyclobutyl)-5-methyl-2,4-dioxo-1-(3,3,3-trifluoropropyl)-1,2,3,4-tetrahydrothieno[2,3-d]pyrimidin-6-yl]methyl}imidazolidin-2-ylidene]cyanamide] showed an IC50 of 14 nM.
With `COCCn1c(=O)n(C2CC2OC)c(=O)c2c(C)c(Cn3nc[nH]c3=O)sc21` (single isomer, unassigned) [Example 310, 3-(2-Methoxycyclopropyl)-1-(2-methoxyethyl)-5-methyl-6-[(5-oxo-4,5-dihydro-1H-1,2,4-triazol-1-yl)methyl]thieno[2,3-d]pyrimidine-2,4(1H,3H)-dione] the IC50 was 3900 nM.
`Cc1c(Cn2nc[nH]c2=O)sc2c1c(=O)n(C1CC1C)c(=O)n2CCOC(F)(F)F` (racemic) [Example 276, 5-Methyl-3-(2-methylcyclopropyl)-6-[(5-oxo-4,5-dihydro-1H-1,2,4-triazol-1-yl)methyl]-1-[2-(trifluoromethoxy)ethyl]thieno[2,3-d]pyrimidine-2,4(1H,3H)-dione] showed an IC50 of 2 nM.
